Measured values taken from US20240052300A1, “DIFFUSION GRADIENT ASSAY FOR ANTI-CD3-CONTAINING MOLECULES” (priority 2020, published 2024).
Side-chain parts run from the residue outwards. [ ]: non-standard residue; d: D form. pGlu = O=C1CC[C@@H](C(=O)O)N1

Key:
[1] = tested on: recombinant canonical BiTE® protein; assay: Size exclusion chromatography with fluorescence detection of CD3-AF488 bound to secreted BiTE; format: binding; details: secretion medium mixed with reagent, capture chromatography, FIG. 1B
Protocol: 100 μl of 0.2 μm filtrated mammalian cell culture samples containing expressed BiTE® constructs featuring human CD3e binding binders were mixed with 2.5 μl peptide-fluorochrome conjugate and transferred into autosampler vials. The vials were placed onto an autosampler connected to an Ultra High Performance Liquid Chromatography ACQUITY UPLC device (Waters, Eschborn, Germany) featuring a fluorescence detector. An analytical size exclusion chromatography BEH200 SEC 1.7 μm column (Waters, Eschborn, Germany) was connected to the UHPLC and equilibrated with a water-based buffer system containing 10 mM Citric Acid, 75 mM Lysine HCl, adjusted to pH 7.0. 10 μl of each prepared sample were applied to the column and eluted using isocratic elution. Detection was performed by using fluorescence detection at 490 nm excitation and 520 nm emission wavelength. […] Both, unpurified secretion medium and purified material were subsequently analyzed by size exclusion chromatography equipped with fluorescence detector (FIG. 1B, C). This setup allowed monitoring of the elution profile of the CD3-AF488 peptide and its bound protein complexes in the context of the whole protein content present in analyzed samples. The UV absorbance (A280 nm) elution profile of purified material allowed for identification of BiTE® monomers, dimers and HMW species (FIG. 1B).

IgG-fusion protein = details: day 5 on chip; FIG. 3A-C
Protocol: (§1) The CD3 diffusion assay peptide reagent was resuspended in DMSO at 1 mg/ml and stored protected from light at −20° C. for long term storage. For short term storage the assay reagent was further diluted to 4 μg/ml in PBS and stored at 4° C. Prior executing the diffusion gradient assay to detect BiTE® secretion on nanofluidic chip the CD3 diffusion assay reagent was diluted in cell culture medium to 0.2 μg/ml concentration, filtered through 22 μm filter, transferred to 96 well plate and incorporated on the chip. The assay reagent was perfused on the chip at 0.014 μl/sec flow rate for the duration of 45 minutes. In FIG. 4, once the equilibration step was complete the assay reagent was flushed out with 250 μl of cell culture medium at a 20/sec flow rate followed by an additional flush with the cell culture medium at the 0.1667 μl/sec flow rate for the duration of 20 mins. The chip was then imaged through TRED filter cube using 900 ms exposure time and 100% illumination settings.
(§2) In FIG. 2, the CD3 diffusion assay reagent was used at 0.125 μg/ml final concentration. […]
(§3) For CD3 diffusion assays shown in FIGS. 3 and 4, the reference assay was run on an empty chip in order to generate reference images used for normalizing the CD3 diffusion assay score against chip position effects and background fluorescence signal. […]
(§4) Next, the specificity of the BiTE® diffusion gradient assay was assessed. […]

BiTE®-Fc fusion = assay: On-chip CD3 diffusion gradient assay, BiTE-Fc secreting cells; details: day 5 on chip; FIG. 3A,B
Protocol: as §1, §2, §3, §4

[2] = tested on: BiTE® recombinant protein
Protocol: The ability of the CD3-AF594 peptide conjugate to be used for diffusion gradient assays to detect secretion of recombinant CD3 binders on Berkeley Light's nanofluidic chip (FIG. 2A) was assessed next. Cells expressing the BiTE® modality were loaded onto a BLI platform using a standard cell line development workflow. Single cells were deposited in Nanopens™, and subsequently cultured under perfusion for the duration of 6 days. The CD3 reagent was used in a diffusion gradient assay using optimized settings as described herein.

## CD3-AF488 peptide ([pGlu]DGNEEMGGC([C5 maleimide-Alexa Fluor 488])-NH2)
[1]
  complex formation with BiTE® recombinant protein (fluorescent SEC elution profile): formed a complex with the BiTE® recombinant protein

## Pyroglutamate-DGNEEMGGC-AF594 [CD3-AF594 conjugate]
IgG-fusion protein
  detection of secretion of the IgG-fusion protein: failed to detect secretion
BiTE®-Fc fusion
  detection of secretion of the BiTE®-Fc protein product: detected
[2]; 6 days perfusion culture, reagent 0.125 μg/ml, FIG. 2B
  fluorescent signal in pens with BiTE® expressing cells vs empty pens: High fluorescent signal
[2]; day 5 on chip, FIG. 3A-C
  detection of secretion of BiTE® expressing cell lines: efficiently detected secretion
